Structures can show the parent of a compound that is named as a salt. Where two headings read alike, the source gives them in different places.
Legend:
Bcl-xL-Beclin 1 complex [1] = molecular target: T1, Bcl-xL-Beclin 1 complex (Homo sapiens, UniProt Q07817); experiment: FP-based high-throughput screening, primary screen; assay type: binding; conditions: first screen; 40 μM compound, 2.5 μM Bcl-xL, 400 nM 20-mer
T1 construct: made in house
Description: Next, we optimized the FP competitive binding assay in a 384-well microplate format and carried out a small-scale HTS using a small library, which contains 6580 compounds from Prestwick, Microsource and our in-house CMLD library. Then, the FP assay was optimized and applied in screening the larger Chembridge library consisting of 43736 compounds. HTS cascades are shown in Supplementary Figure 1A–1B. […] All chemical structures can be found on the PubChem website (http://pubchem.ncbi.nlm.nih.gov/).
(§1) Then the plates were read by Envision (Perkin Elmer, Waltham, MA). […] The hits were selected from library stocks and reconfirmed in a concentration response FP assay (6 doses ranging from 5 μM to 160 μM or 8 doses ranging from 0.5 μM to 60 μM).

Bcl-xL-Beclin 1 complex [2] = molecular target: T1, Bcl-xL-Beclin 1 complex; experiment: Concentration response FP reconfirmation of HTS hits; assay type: binding; conditions: for inhibition at 5 µM: read-out: Dose-response (% Inhibition) 5 μM; for inhibition at 10 µM: read-out: Dose-response (% Inhibition) 10 μM; for inhibition at 20 µM: read-out: Dose-response (% Inhibition) 20 μM; for inhibition at 40 µM: read-out: Dose-response (% Inhibition) 40 μM; for inhibition at 80 µM: read-out: Dose-response (% Inhibition) 80 μM; for inhibition at 160 µM: read-out: Dose-response (% Inhibition) 160 μM
Protocol: as §1

T1 sequence (Q07817 whole entry, one chain of several): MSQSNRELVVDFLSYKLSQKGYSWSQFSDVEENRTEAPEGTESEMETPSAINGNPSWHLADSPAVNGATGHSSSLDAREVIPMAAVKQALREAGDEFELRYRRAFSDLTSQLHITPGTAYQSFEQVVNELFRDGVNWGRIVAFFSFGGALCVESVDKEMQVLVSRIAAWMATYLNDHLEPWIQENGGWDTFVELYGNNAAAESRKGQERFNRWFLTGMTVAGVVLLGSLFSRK

| inhibition at 5 µM (Bcl-xL-Beclin 1 complex [2]; 5 μM, hits of first screen) [%] | inhibition at 10 µM (Bcl-xL-Beclin 1 complex [2]; 10 μM, hits of first screen) [%] | inhibition at 20 µM (Bcl-xL-Beclin 1 complex [2]; 20 μM, hits of first screen) [%] | inhibition at 40 µM (Bcl-xL-Beclin 1 complex [2]; 40 μM, hits of first screen) [%] | inhibition at 80 µM (Bcl-xL-Beclin 1 complex [2]; 80 μM, hits of first screen) [%] | inhibition at 160 µM (Bcl-xL-Beclin 1 complex [2]; 160 μM, hits of first screen) [%] | SMILES | Primary Screen mP (Bcl-xL-Beclin 1 complex [1]) [mP] | inhibition at 40 µM (Bcl-xL-Beclin 1 complex [1]) [%] | inhibition at 5 µM (Bcl-xL-Beclin 1 complex [2]) [%] | inhibition at 10 µM (Bcl-xL-Beclin 1 complex [2]) [%] | inhibition at 20 µM (Bcl-xL-Beclin 1 complex [2]) [%] | inhibition at 40 µM (Bcl-xL-Beclin 1 complex [2]) [%] | inhibition at 80 µM (Bcl-xL-Beclin 1 complex [2]) [%] | inhibition at 160 µM (Bcl-xL-Beclin 1 complex [2]) [%] | further results |
| --- | --- | --- | --- | --- | --- | --- | --- | --- | --- | --- | --- | --- | --- | --- | --- |
| – | – | – | – | – | – | O=C1C(Cl)=C(Cl)C(=O)C(Cl)=C1Cl [Compound A27, CHLORANIL] | 140.9 | 27.8 | -3 | 19.4 | 22.6 | 23.4 | 28.5 | 35.9 | – |
| 67.6 | 77.7 | 103 | 99.7 | 102 | 103 | Cc1cc2nc3c(=O)[nH]c(=O)nc-3n(C[C@H](O)[C@H](O)[C@H](O)CO)c2cc1C [Compound A31, RIBOFLAVIN] | -3.2 | 102 | – | – | – | – | – | – | – |
| – | – | – | – | – | – | CCN(CC)CCNC(=O)COc1ccc(OC)cc1.Cl [Compound A32, MEFEXAMIDE HYDROCHLORIDE] | 119.7 | – | – | – | – | – | – | – | Primary Screen % Inhibition (Bcl-xL-Beclin 1 complex [1]): 14.40%; Dose-response (% Inhibition) 5 μM (Bcl-xL-Beclin 1 complex [2]; 5 μM, hits of first screen): -1.5%; Dose-response (% Inhibition) 10 μM (Bcl-xL-Beclin 1 complex [2]; 10 μM, hits of first screen): 2.6%; Dose-response (% Inhibition) 20 μM (Bcl-xL-Beclin 1 complex [2]; 20 μM, hits of first screen): 4.3%; Dose-response (% Inhibition) 40 μM (Bcl-xL-Beclin 1 complex [2]; 40 μM, hits of first screen): 11.2%; Dose-response (% Inhibition) 80 μM (Bcl-xL-Beclin 1 complex [2]; 80 μM, hits of first screen): 23.1%; Dose-response (% Inhibition) 160 μM (Bcl-xL-Beclin 1 complex [2]; 160 μM, hits of first screen): 32.1% |
| 0.5 | 4.7 | 6.3 | 12 | 22.5 | 20.9 | O=C(O)c1cc(O)c2c(c1)[C@H]([C@H]1c3cc(C(=O)O)cc(O)c3C(=O)c3c(O[C@@H]4O[C@H](CO)[C@@H](O)[C@H](O)[C@H]4O)cccc31)c1cccc(O[C@@H]3O[C@H](CO)[C@@H](O)[C@H](O)[C@H]3O)c1C2=O [Compound A34, SENNOSIDE A] | 119.9 | 12.8 | – | – | – | – | – | – | – |
| 2.7 | 4.1 | 5.8 | 13.6 | 21.1 | 19.9 | O=C(O)c1cc(O)c2c(c1)[C@@H]([C@H]1c3cc(C(=O)O)cc(O)c3C(=O)c3c(O[C@@H]4O[C@H](CO)[C@@H](O)[C@H](O)[C@H]4O)cccc31)c1cccc(O[C@@H]3O[C@H](CO)[C@@H](O)[C@H](O)[C@H]3O)c1C2=O [Compound A35, SENNOSIDE B] | 120.4 | 14.3 | – | – | – | – | – | – | – |
| – | – | – | – | – | – | COc1cccc2c1C(=O)c1c(O)c3c(c(O)c1C2=O)C[C@@](O)(C(C)=O)C[C@@H]3O[C@H]1C[C@H](N)[C@H](O)[C@H](C)O1 [Compound A36, DAUNORUBICIN] | 75.5 | 45.8 | 22.8 | 33.4 | 41 | 44.4 | 51.9 | 56 | – |
| – | – | – | – | – | – | Cc1cc2c(C(C)C)c(O)c(O)c(C=O)c2c(O)c1-c1c(C)cc2c(C(C)C)c(O)c(O)c(C=O)c2c1O [Compound A38, GOSSYPOL] | 125.4 | 10.8 | 2.7 | 4.8 | 5.4 | 8.4 | 14.7 | 18.3 | – |
| – | – | – | – | – | – | O=C(Nc1ccccc1)c1ccccc1O [Compound A39, SALICYLANILIDE] | -3.2 | 102 | 103 | 103 | 103 | 99.7 | 102 | 103 | – |
| – | – | – | – | – | – | CC[N+](C)(CC)CCC[n+]1c(-c2ccccc2)c2cc(N)ccc2c2ccc(N)cc21.[I-].[I-] [Compound A40, PROPIDIUM IODIDE] | 123.6 | – | – | – | – | – | – | – | Primary Screen % Inhibition (Bcl-xL-Beclin 1 complex [1]): 7.08%; Dose-response (% Inhibition) 5 μM (Bcl-xL-Beclin 1 complex [2]; 5 μM, hits of first screen): 0.5%; Dose-response (% Inhibition) 10 μM (Bcl-xL-Beclin 1 complex [2]; 10 μM, hits of first screen): -0.2%; Dose-response (% Inhibition) 20 μM (Bcl-xL-Beclin 1 complex [2]; 20 μM, hits of first screen): 1.2%; Dose-response (% Inhibition) 40 μM (Bcl-xL-Beclin 1 complex [2]; 40 μM, hits of first screen): 4.4%; Dose-response (% Inhibition) 80 μM (Bcl-xL-Beclin 1 complex [2]; 80 μM, hits of first screen): 12.1%; Dose-response (% Inhibition) 160 μM (Bcl-xL-Beclin 1 complex [2]; 160 μM, hits of first screen): 18.3% |

| SMILES | inhibition at 5 µM (Bcl-xL-Beclin 1 complex [2]; 5 μM, hits of first screen) [%] | inhibition at 10 µM (Bcl-xL-Beclin 1 complex [2]; 10 μM, hits of first screen) [%] | inhibition at 20 µM (Bcl-xL-Beclin 1 complex [2]; 20 μM, hits of first screen) [%] | inhibition at 40 µM (Bcl-xL-Beclin 1 complex [2]; 40 μM, hits of first screen) [%] | inhibition at 80 µM (Bcl-xL-Beclin 1 complex [2]; 80 μM, hits of first screen) [%] | inhibition at 160 µM (Bcl-xL-Beclin 1 complex [2]; 160 μM, hits of first screen) [%] | Primary Screen mP (Bcl-xL-Beclin 1 complex [1]) [mP] | inhibition at 40 µM (Bcl-xL-Beclin 1 complex [1]) [%] | inhibition at 5 µM (Bcl-xL-Beclin 1 complex [2]) [%] | inhibition at 10 µM (Bcl-xL-Beclin 1 complex [2]) [%] | inhibition at 20 µM (Bcl-xL-Beclin 1 complex [2]) [%] | inhibition at 40 µM (Bcl-xL-Beclin 1 complex [2]) [%] | inhibition at 80 µM (Bcl-xL-Beclin 1 complex [2]) [%] | inhibition at 160 µM (Bcl-xL-Beclin 1 complex [2]) [%] | further results |
| --- | --- | --- | --- | --- | --- | --- | --- | --- | --- | --- | --- | --- | --- | --- | --- |
| CC1=NCCc2c1[nH]c1cc(O)ccc21 [Compound A28, HARMALOL HYDROCHLORIDE] | 19.2 | 31.2 | 41.6 | 56.8 | 73 | 86.2 | 56.2 | 60 | – | – | – | – | – | – | – |

Source: article PMC5584254, “Identification of novel small molecule Beclin 1 mimetics activating autophagy” (Oncotarget, 2017)
